The assay has as its target T1, NEK9 (Homo sapiens, UniProt Q8TD19).
T1 sequence (Q8TD19 1-979): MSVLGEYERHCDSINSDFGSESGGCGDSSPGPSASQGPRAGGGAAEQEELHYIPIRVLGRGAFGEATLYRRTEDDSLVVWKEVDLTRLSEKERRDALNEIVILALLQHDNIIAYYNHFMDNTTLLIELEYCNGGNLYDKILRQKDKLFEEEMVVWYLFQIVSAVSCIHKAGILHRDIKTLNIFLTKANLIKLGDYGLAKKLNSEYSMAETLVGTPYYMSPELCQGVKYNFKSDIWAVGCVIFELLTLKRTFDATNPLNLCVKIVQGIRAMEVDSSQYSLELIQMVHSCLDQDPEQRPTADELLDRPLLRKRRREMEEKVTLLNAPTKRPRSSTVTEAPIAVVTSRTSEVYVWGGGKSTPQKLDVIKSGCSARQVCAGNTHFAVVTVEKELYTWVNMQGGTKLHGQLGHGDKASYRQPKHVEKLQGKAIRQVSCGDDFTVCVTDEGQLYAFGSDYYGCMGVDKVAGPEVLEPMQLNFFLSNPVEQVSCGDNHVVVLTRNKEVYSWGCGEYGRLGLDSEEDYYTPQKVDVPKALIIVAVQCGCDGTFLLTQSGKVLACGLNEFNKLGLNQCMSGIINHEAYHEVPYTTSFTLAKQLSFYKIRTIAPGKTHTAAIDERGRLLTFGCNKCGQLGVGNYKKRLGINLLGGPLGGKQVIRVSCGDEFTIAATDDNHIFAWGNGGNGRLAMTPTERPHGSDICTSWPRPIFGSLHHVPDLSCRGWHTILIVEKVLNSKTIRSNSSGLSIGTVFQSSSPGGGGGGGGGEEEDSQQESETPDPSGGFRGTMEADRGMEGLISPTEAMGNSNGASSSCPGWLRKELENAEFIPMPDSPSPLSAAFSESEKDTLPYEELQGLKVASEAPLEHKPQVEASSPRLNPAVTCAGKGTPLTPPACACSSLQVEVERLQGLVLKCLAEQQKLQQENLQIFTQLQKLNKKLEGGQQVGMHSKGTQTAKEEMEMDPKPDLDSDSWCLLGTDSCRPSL
Put plainly: Off-chip Mobility Shift Assay (MSA) profiling, NEK9. To be noted: ATP approximating Km. The class given is biochemical. As to the method:
Therefore, we decided to evaluate the selectivity of compound 8 against a panel of NEK kinases at 10 µM, using the technique of Off-chip Mobility shift assay. This concentration was chosen according to the guidelines proposed by Knight and Shokat, since the probability of off-target effects increases dramatically above 10 µM[36]. Furthermore, ATP concentration was set to approximate the Km,ATP for each kinase, so that the resulting selectivity profile directly reflects the intrinsic affinities of the inhibitor[37]. […] A major consequence of this substitution may be the redistribution of surface charges at the flexible activation loop resulting in an altered electrostatic potential and ability of NEK6 kinase to interact with other molecules.
The inhibitory activity of compounds 8 and 21 on NEK6 was also verified with MSA technique (Off-chip Mobility shift assay) (CARNA Biosciences Study ID: CBS170097, CARNA Biosciences, Kobe). […] PKR Inhibitor was used as positive control. For profiling study against NEK kinases (i.e. NEK1, NEK2, NEK6, NEK7, NEK9) (CARNA Biosciences Study ID: CBS170098), 8 was tested at 10 μM and ATP concentration approximating Km for each kinase. Assay condition for kinases are available on “Kinase profiling book” downloading by www.carnabio.com (https://www.carnabio.com/output/pdf/ProfilingProfilingBook_en.pdf).

SMILES strings stand for the structures.

From paper PMC6207720, “Identification and antitumor activity of a novel inhibitor of the NIMA-related kinase NEK6” (Scientific Reports, 2018) come the findings set out here.

By inhibition is commonly meant the drop in the measured response relative to a control, in per cent.

Regarding `CC1=C(C#N)C(O)=NC(=O)/C1=C\c1ccc(-c2ccccc2)o1` [Compound 8, (5Z)-2-hydroxy-4-methyl-6-oxo-5-[(5-phenylfuran-2-yl)methylidene]-5,6-dihydropyridine-3-carbonitrile], the inhibition at 10 µM was 3.1%.
